Laboratory results published in article PMC8296573, “Synthesis and Biological Evaluation of Fingolimod Derivatives as Antibacterial Agents” (ACS Omega, 2021).
Where two headings read alike, the source gives them in different places.

Experiments:
S. aureus ATCC 25923 [1] = assay: Antibacterial activity, pre-exposure (planktonic cells and biofilm formation); type: cell-based, Staphylococcus aureus; conditions: for Average inhibition %, biofilms biomass / Average inhibition %, biofilms viability / Average inhibition %, planktonic cells turbidity / Average inhibition %, planktonic cells viability: ± SD
Description: (§1) The antimicrobial activity was assessed in a similar way for the initial screening and the dose–response evaluation against different bacterial strains. With the exception of the post-exposure experiment, the compounds were added to the wells along with the bacteria to test the ability of compounds to prevent bacterial growth and biofilm formation (pre-exposure). The compounds were diluted in DMSO and plated directly in 96-well plates before adding the bacterial culture, and plates were incubated for 18 h under aerobic conditions at 37 °C with shaking (220 rpm). The antibacterial activity of the compounds was assessed on planktonic cells and biofilms separately using two different measurements for each: optical density (turbidity) and resazurin reduction (viability) on planktonic cells and resazurin followed by a crystal violet staining assay (total biomass) on biofilms, as described in the following sections.
(§2) The resazurin staining was performed according to the protocol previously optimized with a few modifications.[46] Briefly, the planktonic solution was first transferred into a new 96-well plate and the OD of the planktonic solution was measured using a Varioskan LUX Multimode microplate reader (Thermo Scientific, Vantaa, Finland). Then, 10 μL of a 400 μM resazurin (R7017, Sigma-Aldrich, St. Louis, MO) diluted in phosphate-buffered saline (PBS) (Thermo Fisher Scientific, MA) was added to the wells (for a final resazurin concentration of 20 μM). The plate was incubated in the dark with shaking (220 rpm) for about 3–10 min at room temperature with S. aureus and A. baumannii (until the bacteria controls turned pink) or for 20 min at 37 °C with P. aeruginosa. Fluorescence was measured at λex = 560 nm and λem = 590 nm using the top optics of the Varioskan LUX Multimode microplate reader. The planktonic plate was then discarded. The original challenge plate containing the biofilms was washed once with PBS, and 200 μL of a 20 μM resazurin solution was added to the wells. The plate was incubated in the dark at 37 °C with shaking (220 rpm) for 30 min with S. aureus, 60 min with A. baumannii, and 90 min with P. aeruginosa. Fluorescence was measured as described for the planktonic solution. The biofilms were next treated with crystal violet staining.
(§3) After removing the resazurin solution from the plate, biofilms were fixed with ethanol 100% for 15 min at room temperature. Ethanol was then removed, and the biofilms were left to air-dry completely at RT. Crystal violet, diluted to 1:100 in deionized water from the 2.3% commercial solution (HT90132, Sigma-Aldrich, St. Louis, MO), was added to the wells and, after a 5 min incubation with the dye, the biofilms were washed twice with deionized water and left to air-dry for about 10 min. The dye was solubilized in ethanol 100% for 1 h, and absorbance was measured at 595 nm using a Multiskan Sky microplate spectrophotometer (Thermo Scientific, Vantaa, Finland).

A. baumannii NCTC 13423 = assay: Antibacterial activity, pre-exposure; type: cell-based, Acinetobacter baumannii; conditions: for Average inhibition %, biofilms biomass / Average inhibition %, biofilms viability / Average inhibition %, planktonic cells turbidity / Average inhibition %, planktonic cells viability: A. baumannii NCTC 13423, pre-exposure, ± SD
Description: as §1, §2, §3

S. aureus ATCC 25923 [2] = assay: Antibacterial activity, post-exposure on preformed 18-h-old biofilms; type: cell-based, Staphylococcus aureus; conditions: ± SD
Description: For the post-exposure experiment, bacteria were grown with no compounds in the same conditions for 18 h, after which the media was changed, and compounds were added on the preformed biofilms. The plates were then incubated in the same conditions for an additional 24 h before proceeding to the staining assays.
as §2, §3

P. aeruginosa ATCC 9027 = assay: Antibacterial activity, pre-exposure; type: cell-based, Pseudomonas aeruginosa; conditions: for Average inhibition %, biofilms biomass / Average inhibition %, biofilms viability / Average inhibition %, planktonic cells turbidity / Average inhibition %, planktonic cells viability: P. aeruginosa ATCC 9027, pre-exposure, ± SD
Description: as §1, §2, §3

2-Amino-2-(4-decylbenzyl)propane-1,3-diol [Compound 45]
MIC S. aureus ATCC 25923 (S. aureus ATCC 25923 [1]; lowest concentration with no visible growth (>90% inhibition of turbidity and viability of planktonic cells), 18 h): 5 to 10 µM
MIC (S. aureus ATCC 25923 [1]; lowest concentration with no visible growth (>90% inhibition of turbidity and viability of planktonic cells), 18 h, read-out: MIC S. aureus ATCC 25923): 10 µM
Average inhibition %, biofilms biomass (S. aureus ATCC 25923 [1]; pre-exposure, 5 µM): 45.3 ± 46.5%
Average inhibition %, biofilms viability (S. aureus ATCC 25923 [1]; pre-exposure, 5 µM): 45.4 ± 46.1%
Average inhibition %, planktonic cells turbidity (S. aureus ATCC 25923 [1]; pre-exposure, 5 µM): 45.7 ± 46.9%
Average inhibition %, planktonic cells viability (S. aureus ATCC 25923 [1]; pre-exposure, 5 µM): 41.5 ± 50.3%
Average inhibition %, biofilms biomass (S. aureus ATCC 25923 [1]; pre-exposure, 10 µM): 92.5 ± 4.8%
Average inhibition %, biofilms viability (S. aureus ATCC 25923 [1]; pre-exposure, 10 µM): 98.9 ± 0.5%
Average inhibition %, planktonic cells turbidity (S. aureus ATCC 25923 [1]; pre-exposure, 10 µM): 99 ± 0.7%
Average inhibition %, planktonic cells viability (S. aureus ATCC 25923 [1]; pre-exposure, 10 µM): 99.8 ± 0.1%
Average inhibition %, biofilms biomass (S. aureus ATCC 25923 [1]; pre-exposure, 15 µM): 91.8 ± 4.7%
Average inhibition %, biofilms viability (S. aureus ATCC 25923 [1]; pre-exposure, 15 µM): 99.7 ± 0.1%
Average inhibition %, planktonic cells turbidity (S. aureus ATCC 25923 [1]; pre-exposure, 15 µM): 98.9 ± 0.7%
Average inhibition %, planktonic cells viability (S. aureus ATCC 25923 [1]; pre-exposure, 15 µM): 99.7 ± 0.1%
Average inhibition %, biofilms biomass (S. aureus ATCC 25923 [1]; pre-exposure, 25 µM): 91.8 ± 5.6%
Average inhibition %, biofilms viability (S. aureus ATCC 25923 [1]; pre-exposure, 25 µM): 99.7 ± 0%
Average inhibition %, planktonic cells turbidity (S. aureus ATCC 25923 [1]; pre-exposure, 25 µM): 98.6 ± 0.6%
Average inhibition %, planktonic cells viability (S. aureus ATCC 25923 [1]; pre-exposure, 25 µM): 99.8 ± 0.2%
MIC (S. aureus ATCC 25923 [1]; pre-exposure, lowest value among replicates, read-out: MIC S. aureus ATCC 25923, for some replicates): 5 µM
MIC (S. aureus) (S. aureus ATCC 25923 [1]; supplementary molecular formula strings sheet): 5 to 10 µM
Average inhibition %, biofilms biomass (A. baumannii NCTC 13423; 10 µM): 0 ± 0%
Average inhibition %, biofilms viability (A. baumannii NCTC 13423; 10 µM): 2.1 ± 3.6%
Average inhibition %, planktonic cells turbidity (A. baumannii NCTC 13423; 10 µM): 0 ± 0%
Average inhibition %, planktonic cells viability (A. baumannii NCTC 13423; 10 µM): 4.8 ± 2.9%
Average inhibition %, biofilms biomass (A. baumannii NCTC 13423; 15 µM): 1 ± 1.8%
Average inhibition %, biofilms viability (A. baumannii NCTC 13423; 15 µM): 0.5 ± 0.8%
Average inhibition %, planktonic cells turbidity (A. baumannii NCTC 13423; 15 µM): 0 ± 0%
Average inhibition %, planktonic cells viability (A. baumannii NCTC 13423; 15 µM): 2.8 ± 3.8%
Average inhibition %, biofilms biomass (A. baumannii NCTC 13423; 25 µM): 0 ± 0%
Average inhibition %, biofilms viability (A. baumannii NCTC 13423; 25 µM): 2.7 ± 4%
Average inhibition %, planktonic cells turbidity (A. baumannii NCTC 13423; 25 µM): 0 ± 0%
Average inhibition %, planktonic cells viability (A. baumannii NCTC 13423; 25 µM): 0 ± 0%
Average inhibition %, biofilms biomass (A. baumannii NCTC 13423; 50 µM): 0.7 ± 1.3%
Average inhibition %, biofilms viability (A. baumannii NCTC 13423; 50 µM): 6.5 ± 7.4%
Average inhibition %, planktonic cells turbidity (A. baumannii NCTC 13423; 50 µM): 0 ± 0%
Average inhibition %, planktonic cells viability (A. baumannii NCTC 13423; 50 µM): 0 ± 0%
MIC A. baumannii NCTC 13423 (A. baumannii NCTC 13423; pre-exposure, Inactive = no activity up to 50 μM, > = some inhibition but no MIC reached): Inactive
Average inhibition %, biofilms biomass (S. aureus ATCC 25923 [2]; 25 µM): 36.9 ± 3%
Average inhibition %, biofilms viability (S. aureus ATCC 25923 [2]; 25 µM): 15.5 ± 10.9%
Average inhibition %, planktonic cells turbidity (S. aureus ATCC 25923 [2]; 25 µM): 9.2 ± 8.6%
Average inhibition %, planktonic cells viability (S. aureus ATCC 25923 [2]; 25 µM): 1 ± 1.7%
Average inhibition %, biofilms biomass (S. aureus ATCC 25923 [2]; 50 µM): 39.5 ± 9%
Average inhibition %, biofilms viability (S. aureus ATCC 25923 [2]; 50 µM): 25.2 ± 5.5%
Average inhibition %, planktonic cells turbidity (S. aureus ATCC 25923 [2]; 50 µM): 28.1 ± 16.3%
Average inhibition %, planktonic cells viability (S. aureus ATCC 25923 [2]; 50 µM): 22.5 ± 18.5%
Average inhibition %, biofilms biomass (S. aureus ATCC 25923 [2]; 100 µM): 51.3 ± 5.8%
Average inhibition %, biofilms viability (S. aureus ATCC 25923 [2]; 100 µM): 23.1 ± 10.2%
Average inhibition %, planktonic cells turbidity (S. aureus ATCC 25923 [2]; 100 µM): 45.7 ± 12.8%
Average inhibition %, planktonic cells viability (S. aureus ATCC 25923 [2]; 100 µM): 59.7 ± 16.4%
Average inhibition %, biofilms biomass (S. aureus ATCC 25923 [2]; 200 µM): 47.7 ± 12.7%
Average inhibition %, biofilms viability (S. aureus ATCC 25923 [2]; 200 µM): 17.1 ± 16.5%
Average inhibition %, planktonic cells turbidity (S. aureus ATCC 25923 [2]; 200 µM): 53.9 ± 18.7%
Average inhibition %, planktonic cells viability (S. aureus ATCC 25923 [2]; 200 µM): 70.7 ± 12.5%
Average inhibition %, biofilms biomass (P. aeruginosa ATCC 9027; 50 µM): 5 ± 3.4%
Average inhibition %, biofilms viability (P. aeruginosa ATCC 9027; 50 µM): 8.1 ± 10.9%
Average inhibition %, planktonic cells turbidity (P. aeruginosa ATCC 9027; 50 µM): 31.3 ± 5.3%
Average inhibition %, planktonic cells viability (P. aeruginosa ATCC 9027; 50 µM): 24.4 ± 2.7%
Average inhibition %, biofilms biomass (P. aeruginosa ATCC 9027; 100 µM): 2.5 ± 4.4%
Average inhibition %, biofilms viability (P. aeruginosa ATCC 9027; 100 µM): 4 ± 6.6%
Average inhibition %, planktonic cells turbidity (P. aeruginosa ATCC 9027; 100 µM): 41.8 ± 6%
Average inhibition %, planktonic cells viability (P. aeruginosa ATCC 9027; 100 µM): 30 ± 7.6%
Average inhibition %, biofilms biomass (P. aeruginosa ATCC 9027; 150 µM): 1.6 ± 2.8%
Average inhibition %, biofilms viability (P. aeruginosa ATCC 9027; 150 µM): 1.9 ± 2.9%
Average inhibition %, planktonic cells turbidity (P. aeruginosa ATCC 9027; 150 µM): 39.3 ± 3.3%
Average inhibition %, planktonic cells viability (P. aeruginosa ATCC 9027; 150 µM): 36.5 ± 11.5%
Average inhibition %, biofilms biomass (P. aeruginosa ATCC 9027; 200 µM): 0 ± 0%
Average inhibition %, biofilms viability (P. aeruginosa ATCC 9027; 200 µM): 0 ± 0%
Average inhibition %, planktonic cells turbidity (P. aeruginosa ATCC 9027; 200 µM): 40.7 ± 6.2%
Average inhibition %, planktonic cells viability (P. aeruginosa ATCC 9027; 200 µM): 22.9 ± 11.2%
MIC P. aeruginosa ATCC 9027 (P. aeruginosa ATCC 9027; pre-exposure, Inactive = no activity up to 200 μM, > = some inhibition but no MIC reached): Inactive
